For 35 compounds, IC50 results are on record in US20210198277A1, “AMINE-SUBSTITUTED ARYL OR HETEROARYL COMPOUNDS” (Epizyme, Inc., priority 2016, published 2021).

This experiment addresses T1, EHMT1 (Homo sapiens, UniProt Q9H9B1).
T1 sequence (Q9H9B1 1-1298): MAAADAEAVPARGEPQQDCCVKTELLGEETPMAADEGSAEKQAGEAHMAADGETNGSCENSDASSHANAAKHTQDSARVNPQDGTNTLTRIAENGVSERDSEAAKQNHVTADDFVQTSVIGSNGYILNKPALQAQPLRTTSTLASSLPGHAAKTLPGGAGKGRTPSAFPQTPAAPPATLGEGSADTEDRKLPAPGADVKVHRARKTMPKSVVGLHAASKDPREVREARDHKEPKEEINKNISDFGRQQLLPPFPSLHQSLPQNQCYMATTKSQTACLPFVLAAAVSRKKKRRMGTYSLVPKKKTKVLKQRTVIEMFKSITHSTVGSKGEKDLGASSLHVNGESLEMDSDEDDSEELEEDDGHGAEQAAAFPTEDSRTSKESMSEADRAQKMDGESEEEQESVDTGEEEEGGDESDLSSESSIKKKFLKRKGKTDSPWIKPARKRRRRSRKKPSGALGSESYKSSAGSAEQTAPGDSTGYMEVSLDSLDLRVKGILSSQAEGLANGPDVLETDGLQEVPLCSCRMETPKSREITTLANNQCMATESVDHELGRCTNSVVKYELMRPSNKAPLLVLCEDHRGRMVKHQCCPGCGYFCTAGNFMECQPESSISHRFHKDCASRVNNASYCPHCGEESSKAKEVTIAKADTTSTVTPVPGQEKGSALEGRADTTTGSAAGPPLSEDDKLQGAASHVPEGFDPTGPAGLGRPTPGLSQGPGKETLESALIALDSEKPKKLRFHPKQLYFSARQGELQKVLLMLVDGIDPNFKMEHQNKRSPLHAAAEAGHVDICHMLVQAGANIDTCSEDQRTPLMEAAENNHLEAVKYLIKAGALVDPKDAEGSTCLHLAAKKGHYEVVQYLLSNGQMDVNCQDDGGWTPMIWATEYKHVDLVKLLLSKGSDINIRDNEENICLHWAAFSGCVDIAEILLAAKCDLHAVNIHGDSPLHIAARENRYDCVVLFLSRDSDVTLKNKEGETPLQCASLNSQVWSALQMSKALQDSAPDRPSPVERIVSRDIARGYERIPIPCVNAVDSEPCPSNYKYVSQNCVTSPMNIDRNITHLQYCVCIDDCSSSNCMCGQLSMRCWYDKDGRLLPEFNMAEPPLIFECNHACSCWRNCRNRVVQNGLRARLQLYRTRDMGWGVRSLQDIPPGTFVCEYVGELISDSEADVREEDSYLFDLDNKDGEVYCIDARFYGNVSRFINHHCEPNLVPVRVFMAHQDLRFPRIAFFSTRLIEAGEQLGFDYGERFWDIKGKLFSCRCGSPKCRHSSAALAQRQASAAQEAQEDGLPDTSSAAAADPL
As to the kind of experiment: EHMT1 enzyme assay on peptide substrate (EHMT1 PEP). The conditions noted are these: Table VI; read-out: EHMT1 PEP IC50. The class given is biochemical.

As to `CNc1cc(C)nc(Nc2cnc(OC)c(OC[C@@H]3CCN(C4CCC4)C3)c2)n1` [Compound 798], the IC50 (usually the concentration that inhibits the measured activity by half) was less than 100 nM.

Take `COc1ccc(Nc2nc(C)cc(NC(C)C)n2)cc1OC[C@@H]1CCNC1` [Compound 800]: the IC50 is less than 100 nM.

For `COc1cnc(Nc2nccc3nccn23)cc1OC[C@@H]1CCNC1` [Compound 801], the IC50 is greater than 10000 nM.

For the compound `CNc1cc(C2CCOCC2)c2cc(OC)c(OC[C@@H]3CCNC3)cc2n1` [Compound 802], the IC50 is less than 100 nM.

As for `CNc1cc(C2CCOCC2)c2cc(OC)c(OC[C@@H]3CCN(C)C3)cc2n1` [Compound 803], the IC50 was less than 100 nM.

For the compound `COc1cc(NC2CCOCC2)ncc1OCC1CCNC1` (centres unmarked) [Compound 806], the IC50 was 1000 to 10000 nM.

Consider `COc1cc(N(C)C2CCOCC2)ncc1OCC1CCNC1` (centres unmarked) [Compound 808], for which the IC50 lay in the range of 1000 to 10000 nM.

Take `CNc1cc(C2CCN(C(C)=O)CC2)c2cc(OC)c(OCCCN3CCCC3)cc2n1` [Compound 809]: the IC50 was less than 100 nM.

`COc1cc2c(C)cc(N3CCCCC3)nc2cc1OCCCN1CCCC1` [Compound 810]: the IC50 was less than 100 nM.

As to `COc1cc2c(C)nc(N3CCCCC3)nc2cc1OCCCN1CCCC1` [Compound 811], the IC50 is greater than 10000 nM.

Take `COc1cc2c(C3CCN(C)CC3)cc(N3CCCCC3)nc2cc1OCCCN1CCCC1` [Compound 812]: the IC50 was less than 100 nM.

On to `CNc1cc(C)nc(Nc2ccc(OC)c(CN[C@H]3CCNC3)c2)n1` [Compound 813], for which the IC50 was in the range of 100 to 1000 nM.

In the case of `CNc1cc(C)nc(Nc2ccc(OC)c(CN[C@@H]3CCNC3)c2)c1` [Compound 814], the concentration for half-maximal inhibition (IC50) was 1000 to 10000 nM.

Take `CNc1cc(C2CCCCC2)c2cc(OC)c(OCCCN3CCCC3)cc2n1` [Compound 816]: the IC50 is less than 100 nM.

As for `CNc1cc(C(C)C)c2cc(OC)c(OCCCN3CCCC3)cc2n1` [Compound 817], the IC50 is less than 100 nM.

Turning to `COc1cc2c(C3CCOCC3)cc(=O)[nH]c2cc1OCCCN1CCCC1` [Compound 822], the IC50 is greater than 10000 nM.

Take `CNc1cc(CC2CCOCC2)c2cc(OC)c(OCCCN3CCCC3)cc2n1` [Compound 823]: the IC50 is less than 100 nM.

For the compound `COc1cc2c(C3CCOCC3)cc(N3CCCCC3)nc2cc1OCCCN1CCCC1` [Compound 824], the IC50 was in the range of 100 to 1000 nM.

`COc1cc2c(C3CCOCC3)cc(N(C)C)nc2cc1OCCCN1CCCC1` [Compound 825]: the IC50 fell in the range of 100 to 1000 nM.

`CNc1cc(C2CCN(CCC(F)(F)F)CC2)c2cc(OC)c(OCCCN3CCCC3)cc2n1` [Compound 832]: the IC50 is less than 100 nM.

On to `CNc1cc(C2CCN(CC(F)(F)F)CC2)c2cc(OC)c(OCCCN3CCCC3)cc2n1` [Compound 833], for which the IC50 was less than 100 nM.

Take `COc1cc2c(C3CCN(C(C)=O)CC3)cc(C)nc2cc1OCCCN1CCCC1` [Compound 834]: the concentration for half-maximal inhibition (IC50) lay within 100 to 1000 nM.

For `CCS(=O)(=O)N1CCC(c2cc(C)nc3cc(OCCCN4CCCC4)c(OC)cc23)CC1` [Compound 836], the IC50 lay in the range of 100 to 1000 nM.

In the case of `COc1cc2c(C3CCN(CC(F)(F)F)CC3)cc(C)nc2cc1OCCCN1CCCC1` [Compound 837], the IC50 was in the range of 100 to 1000 nM.

In the case of `COc1cc2c(C3CCN(CCC(F)(F)F)CC3)cc(C)nc2cc1OCCCN1CCCC1` [Compound 838], the IC50 is less than 100 nM.

Regarding `CNc1cc(C2CCN(CCOC)CC2)c2cc(OC)c(OCCCN3CCCC3)cc2n1` [Compound 839], the half-maximal inhibitory concentration (IC50) was less than 100 nM.

For `COc1cc2c(C3CCN(CC(F)(F)F)CC3)nc(C)nc2cc1OCCCN1CCCC1` [Compound 841], the IC50 was greater than 10000 nM.

For `CNc1cc(C)nc(Nc2ccc(OC)c(C#CC3CCNC3)c2)n1` (centres unmarked) [Compound 845], the IC50 is less than 100 nM.

In the case of `CNc1cc(C)nc(Nc2ccc(OC)c(C#CC3CCCN3)c2)n1` (centres unmarked) [Compound 846], the IC50 is less than 100 nM.

For the compound `CNc1cc(C)nc(Nc2ccc(OC)c(C#CC3CCN(C)C3)c2)n1` (centres unmarked) [Compound 847], the half-inhibitory concentration (IC50) was less than 100 nM.

As for `CNc1cc(C)nc(Nc2ccc(OC)c(C#CC3CCCN3C)c2)n1` (centres unmarked) [Compound 848], the concentration for half-maximal inhibition (IC50) was less than 100 nM.

Turning to `CNC(=O)c1cc(C)nc(Nc2ccc(OC)c(OCCCN3CCCC3)c2)n1` [Compound 854], the concentration for half-maximal inhibition (IC50) is greater than 10000 nM.

As for `CNc1cc(C)c2cc(OC)c(C#CCN3CCCC3)cc2n1` [Compound 859], the IC50 is less than 100 nM.

Turning to `CNc1cc(C)nc(Nc2ccc(OC)c(C#CCN3CCN(C)CC3)c2)n1` [Compound 860], the IC50 was greater than 10000 nM.

With `COc1cc2c(C3CCN([C@@H]4CCOC4)CC3)cc(C)nc2cc1OCCCN1CCCC1` [Compound 863], the IC50 is less than 100 nM.
